From patent US12668587B2, “Benzimidazolone GLP-1 receptor agonist and use thereof” (HANGZHOU ZHONGMEIHUADONG PHARMACEUTICAL CO., LTD., priority 2020, dated 2026)
Where two headings read alike, the source gives them in different places.

Target: Human GLP-1R (Homo sapiens, UniProt P43220)
Experiment: GLP-1R agonist activity, HTRF cAMP detection in 293A GFP-GLP-1R cells
Design: Emax: dose or concentration left out as unconfirmed
Conditions: for Emax: 293A
[1] = cAMP level, 293A GFP-GLP-1R cells, 30 min incubation, geometric mean

Sequence of Human GLP-1R (P43220 24-463): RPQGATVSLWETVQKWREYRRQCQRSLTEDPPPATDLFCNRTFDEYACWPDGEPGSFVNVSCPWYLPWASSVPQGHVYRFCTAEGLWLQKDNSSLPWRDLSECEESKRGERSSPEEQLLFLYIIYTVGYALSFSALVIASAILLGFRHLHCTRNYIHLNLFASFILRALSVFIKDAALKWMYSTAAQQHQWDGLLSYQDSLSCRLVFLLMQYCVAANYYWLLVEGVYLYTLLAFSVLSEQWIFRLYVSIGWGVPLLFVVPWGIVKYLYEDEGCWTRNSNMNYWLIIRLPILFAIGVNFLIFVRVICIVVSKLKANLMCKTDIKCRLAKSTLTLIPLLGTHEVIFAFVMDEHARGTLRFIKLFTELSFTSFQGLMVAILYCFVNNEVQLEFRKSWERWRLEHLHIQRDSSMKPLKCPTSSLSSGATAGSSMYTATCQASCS
Method: GLP-1R-mediated agonist activity was determined by cell-based assays using a homogeneous time-resolved fluorescence (i.e., HTRF)-based cAMP detection kit, which measures the level of cAMP in cells. The method was a competitive immunoassay. It enabled direct pharmacological characterization of compounds acting on Gs-coupled receptors in adherent or suspending cells.
The standard curve of native cAMP or unlabeled cAMP produced by cells competed with d2-labeled cAMP red receptors to bind monoclonal anti-cAMP Eu3+ cryptate donors, and the specific signal was inversely proportional to the concentration of cAMP in standard or tested samples.
Human GLP-1R encoding sequence (NCBI reference sequence NP_002053.3) was subcloned into pEGFP-N1 (tsingke), and the cell line stably expressing the receptor was isolated. The expression density of GLP-1R was confirmed by the expression of GFP observed under a fluorescence microscope.
Cells were collected from a T25 tissue culture flask and centrifuged at room temperature at 1000 rpm for 5 minutes. The cell precipitates were then re-suspended in 1 mL of the stimulating buffer. 20 μL sample of cell suspension was counted on a counter STAR IC 1000 to determine the cell viability and the cell count per mL. The remaining cell suspension was then regulated with the stimulating buffer to deliver 2000 living cells per well using a multi-channel pipette. 5 μL of the cell suspension was added to each well of the plate which already contained the compound. The plate was sealed and incubated at 37° C. with 5% CO2 for 30 minutes.
After 30 minutes of incubation, 5 μL of d2-labeled cAMP and 5 μL of anti-cAMP cryptate (both 1: 20 diluted in the cell lysis buffer) were added to each well of the plate. The plate was then incubated at room temperature for 60 minutes, and the changes of HTRF signal were read with Tecan Spark reader: absorbance values at 340 nm (excitation)/at 615 nm and 665 nm (emission). Raw data were converted into nM cAMP by interpolation from the cAMP standard curve, and the effect in percentage was determined relative to the saturated concentration of the complete agonist GLP-17˜37 (400 nM) contained in each plate. Determination of EC50 was performed based on the agonist dose-response curve, which was analyzed using a four-parameter logical dose-response equation with a curve fitting program.
The test data presented the results in the form of a geometric mean (EC50s) based on the number of repetition times.

Row | EC50 [µM] | Emax [%] | EC50 [1] [µM] | SMILES
1 | 0.00085 | 111 |  | CC(=O)c1ccc(COc2cccc(C3CCN(Cc4nc5ccc(C(=O)O)cc5n4C[C@@H]4CCO4)CC3)n2)c(F)c1 [Compound 1, (S)-2-((4-(6-((4-acetyl-2-fluorobenzyl)oxy)pyridin-2-yl)piperidin-1-yl)methyl)-1-(oxetan-2-ylmethyl)-1H-benzo[d]imidazole-6-carboxylic acid]
2 | > 1 | 29.8 |  | CS(=O)(=O)c1ccc(COc2cccc(C3CCN(Cc4nc5ccc(C(=O)O)cc5n4C[C@@H]4CCO4)CC3)n2)c(F)c1 [Compound 2, (S)-2-((4-(6-((2-fluoro-4-(methylsulfonyl)benzyl)oxy)pyridin-2-yl)piperidin-1-yl)methyl)-1-(oxetan-2-methyl)-1H-benzo[d]imidazole-6-carboxylic acid]
3 |  | 54.5 | 0.0759 | NC(=O)c1ccc(COc2cccc(C3CCN(Cc4nc5ccc(C(=O)O)cc5n4C[C@@H]4CCO4)CC3)n2)c(F)c1 [Compound 3, (S)-2-((4-(6-((4-carbamoyl-2-fluorobenzyl)oxy)pyridin-2-yl)piperidin-1-yl)methyl)-1-(oxetan-2-ylmethyl)-1H-benzo[d]imidazole-6-carboxylic acid]
4 |  | 68.6 | 0.179 | CNC(=O)c1ccc(COc2cccc(C3CCN(Cc4nc5ccc(C(=O)O)cc5n4C[C@@H]4CCO4)CC3)n2)c(F)c1 [Compound 4, (S)-2-((4-(6-((2-fluoro-4-(methylcarbamoyl)benzyl)oxy)pyridin-2-yl)piperidin-1-yl)methyl)-1-(oxetan-2-ylmethyl)-1H-benzo[d]imidazole-6-carboxylic acid]
5 | 0.00054 | 81.3 |  | CC(=O)c1ccc(COc2cccc(C3CCN(Cc4nc5ccc(C(=O)O)nc5n4C[C@@H]4CCO4)CC3)n2)c(F)c1 [Compound 5, (S)-2-((4-(6-((4-acetyl-2-fluorobenzyl)oxy)pyridin-2-yl)piperidin-1-yl)methyl)-3-(oxetan-2-ylmethyl)-3H-imidazo[4,5-b]pyridine-5-carboxylic acid]
6 | > 1 | 7.07 |  | CP(C)(=O)c1ccc(COc2cccc(C3CCN(Cc4nc5ccc(C(=O)O)cc5n4C[C@@H]4CCO4)CC3)n2)c(F)c1 [Compound 6, (S)-2-((4-(6-((4-(dimethylphosphoryl)-2-fluorobenzyl)oxy)pyridin-2-yl)piperidin-1-yl)methyl)-1-(oxetan-2-ylmethyl)-1H-benzo[d]imidazole-6-carboxylic acid]
7 |  | 103 | 0.00075 | O=C(O)c1ccc2nc(CN3CCC(c4cccc(OCc5ccc(C(=O)C6CC6)cc5F)n4)CC3)n(C[C@@H]3CCO3)c2c1 [Compound 7, (S)-2-((4-(6-((4-(cyclopropanecarbonyl)-2-fluorobenzyl)oxy)pyridin-2-yl)piperidin-1-yl)methyl)-1-(oxetan-2-ylmethyl)-1H-benzo[d]imidazole-6-carboxylic acid]
8 |  | 88 | 0.0237 | O=C(O)c1ccc2nc(CN3CCC(c4cccc(OCc5ccc(C(=O)c6cccnc6)cc5F)n4)CC3)n(C[C@@H]3CCO3)c2c1 [Compound 8, (S)-2-((4-(6-((2-fluoro-4-nicotinoylbenzyl)oxy)pyridin-2-yl)piperidin-1-yl)methyl)-1-(oxetan-2-ylmethyl)-1H-benzo[d]imidazole-6-carboxylic acid]
9 | 0.027 | 83.4 |  | CC(=O)c1ccc(COc2cccc(C3CCN(Cc4nc5ccc(C(=O)O)cc5n4C[C@@H]4CCO4)CC3)n2)nc1 [Compound 9, (S)-2-((4-(6-((5-acetylpyridin-2-yl)methoxy)pyridin-2-yl)piperidin-1-yl)methyl)-1-(oxetan-2-ylmethyl)-1H-benzo[d]imidazole-6-carboxylic acid]
10 | 0.00167 | 125 |  | CC(=O)c1ccc(COc2cccc(C3CCN(Cc4nc5ccc(C(=O)O)cc5n4C[C@@H]4CCO4)CC3)n2)c(C)c1 [Compound 10, (S)-2-((4-(6-((4-acetyl-2-methylbenzyl)oxy)pyridin-2-yl)piperidin-1-yl)methyl)-1-(oxetan-2-ylmethyl)-1H-benzo[d]imidazole-6-carboxylic acid]
11 | 0.0425 | 85.5 |  | CC(=O)c1ccc(COc2cccc(C3CCN(Cc4nc5ccc(C(=O)O)cc5n4C[C@@H]4CCO4)CC3)n2)c(C(F)(F)F)c1 [Compound 11, (S)-2-((4-(6-((4-acetyl-2-(trifluoromethyl)benzyl)oxy)pyridin-2-yl)piperidin-1-yl)methyl)-1-(oxetan-2-ylmethyl)-1H-benzo[d]imidazole-6-carboxylic acid]
12 | 0.00025 | 147 |  | COc1cc(C(C)=O)ccc1COc1cccc(C2CCN(Cc3nc4ccc(C(=O)O)cc4n3C[C@@H]3CCO3)CC2)n1 [Compound 12, (S)-2-((4-(6-((4-acetyl-2-methoxybenzyl)oxy)pyridin-2-yl)piperidin-1-yl)methyl)-1-(oxetan-2-ylmethyl)-1H-benzo[d]imidazole-6-carboxylic acid]
13 | 0.04 | 88.5 |  | CC(=O)c1cc(F)c(COc2cccc(C3CCN(Cc4nc5ccc(C(=O)O)cc5n4C[C@@H]4CCO4)CC3)n2)c(F)c1 [Compound 13, (S)-2-((4-(6-((4-acetyl-2,6-difluorobenzyl)oxy)pyridin-2-yl)piperidin-1-yl)methyl)-1-(oxetan-2-ylmethyl)-1H-benzo[d]imidazole-6-carboxylic acid]
14 | 0.705 | 109 |  | CC(=O)c1ccc(F)c(COc2cccc(C3CCN(Cc4nc5ccc(C(=O)O)cc5n4C[C@@H]4CCO4)CC3)n2)c1 [Compound 14, (S)-2-((4-(6-((5-acetyl-2-fluorobenzyl)oxy)pyridin-2-yl)piperidin-1-yl)methyl)-1-(oxetan-2-ylmethyl)-1H-benzo[d]imidazole-6-carboxylic acid]
15 | > 1 | 13.6 |  | CON(C)C(=O)c1ccc(COc2cccc(C3CCN(Cc4nc5ccc(C(=O)O)cc5n4C[C@@H]4CCO4)CC3)n2)c(F)c1 [Compound 15, (S)-2-((4-(6-((2-fluoro-4-(methoxy(methyl)carbamoyl)benzyl)oxy)pyridin-2-yl)piperidin-1-yl)methyl)-1-(oxetan-2-ylmethyl)-1H-benzo[d]imidazole-6-carboxylic acid]
16 | 0.00719 | 88.2 |  | CC(=O)c1ccc(COc2cccc(C3CCN(Cc4nc5ccc(C(=O)O)cc5n4C[C@@H]4CCO4)CC3)n2)cc1 [Compound 16, (S)-2-((4-(6-((4-acetylbenzyl)oxy)pyridin-2-yl)piperidin-1-yl)methyl)-1-(oxetan-2-ylmethyl)-1H-benzo[d]imidazole-6-carboxylic acid]
17 | 0.00768 | 104 |  | CC(=O)c1cccc(COc2cccc(C3CCN(Cc4nc5ccc(C(=O)O)cc5n4C[C@@H]4CCO4)CC3)n2)c1F [Compound 17, (S)-2-((4-(6-((3-acetyl-2-fluorobenzyl)oxy)-pyridin-2-yl)piperidin-1-yl)methyl)-1-(oxetan-2-ylmethyl)-1H-benzo[d]imidazole-6-carboxylic acid]
18 | 0.0221 | 113 |  | CC(=O)c1cccc(COc2cccc(C3CCN(Cc4nc5ccc(C(=O)O)cc5n4C[C@@H]4CCO4)CC3)n2)c1 [Compound 18, (S)-2-((4-(6-((3-acetylbenzyl)oxy)pyridin-2-yl)piperidin-1-yl)methyl)-1-(oxetan-2-ylmethyl)-1H-benzo[d]imidazole-6-carboxylic acid]
19 |  | 129 | 0.145 | O=C(O)c1ccc2nc(CN3CCC(c4cccc(OCc5ccc(C(=O)C6CCOCC6)cc5F)n4)CC3)n(C[C@@H]3CCO3)c2c1 [Compound 19, (S)-2-((4-(6-((2-fluoro-4-(tetrahydro-2H-pyran-4-carbonyl)benzyl)oxy)pyridin-2-yl)piperidin-1-yl)methyl)-1-(oxetan-2-ylmethyl)-1H-benzo[d]imidazole-6-carboxylic acid]
20 | 0.00031 | 120 |  | COc1cc(C(=O)C2CC2)ccc1COc1cccc(C2CCN(Cc3nc4ccc(C(=O)O)cc4n3C[C@@H]3CCO3)CC2)n1 [Compound 20, (S)-2-((4-(6-((4-(cyclopropanecarbonyl)-2-methoxybenzyl)oxy)pyridin-2-yl)piperidin-1-yl)methyl)-1-(oxetan-2-ylmethyl)-1H-benzo[d]imidazole-6-carboxylic acid]
21 | 0.0953 | 91.8 |  | CC(=O)c1ccc(COc2cccc(C3CCN(Cc4nc5ccc(C(=O)O)cc5n4C[C@@H]4CCO4)CC3)n2)c(OC(F)(F)F)c1 [Compound 21, (S)-2-((4-(6-((4-acetyl-2-(trifluoromethoxy)benzyl)oxy)pyridin-2-yl)piperidin-1-yl)methyl)-1-(oxetan-2-ylmethyl)-1H-benzo[d]imidazole-6-carboxylic acid]
22 | 0.0161 | 108 |  | COc1cc(COc2cccc(C3=CCN(Cc4nc5ccc(C(=O)O)cc5n4C[C@@H]4CCO4)CC3)n2)ccc1C(C)=O [Compound 23, (S)-2-((6-((4-acetyl-3-methoxybenzyl)oxy)-3′,6′-dihydro-[2,4′-bipyridin]-1′(2′H)-yl)methyl)-1-(oxetan-2-ylmethyl)-1H-benzo[d]imidazole-6-carboxylic acid]
23 | > 1 | 25.8 |  | CN(C)C(=O)c1ccc(COc2cccc(C3CCN(Cc4nc5ccc(C(=O)O)cc5n4C[C@@H]4CCO4)CC3)n2)c(F)c1 [Compound 24, (S)-2-((4-(6-((4-(dimethylcarbamoyl)-2-fluorobenzyl)oxy)pyridin-2-yl)piperidin-1-yl)methyl)-1-(oxetan-2-ylmethyl)-1H-benzo[d]imidazole-6-carboxylic acid]
24 | 0.00457 | 94.4 |  | CC(=O)c1ccc(COc2cccc(C3CCN(Cc4nc5ccc(C(=O)O)cc5n4C[C@@H]4CCO4)CC3)n2)cc1F [Compound 26, (S)-2-((4-(6-((4-acetyl-3-fluorobenzyl)oxy)pyridin-2-yl)piperidin-1-yl)methyl)-1-(oxetan-2-ylmethyl)-1H-benzo[d]imidazole-6-carboxylic acid]

Row | SMILES | EC50 [µM] | Emax [%] | EC50 [1] [µM]
25 | CC(=O)c1ccc(COc2cccc(C3CCN(Cc4nc5ccc(C(=O)O)cc5n4C[C@@H]4CCO4)CC3)n2)c(Cl)c1 [Compound 27] | 0.00013 | 83.9 | 
